Values after ≈ are worked out from the molar mass of the structure shown. Active and inactive are the calls of the source. The calls are words filed in the database; no cut-off is given here.
Key:
Bile acid receptor = molecular target: T1, Bile acid receptor (Homo sapiens, UniProt Q96RI1); experiment: Transactivation of human FXR expressed in human HeLa cells incubated for 24 hrs by luciferase reporter gene assay; type: cell-based
T1 sequence (Q96RI1 whole entry): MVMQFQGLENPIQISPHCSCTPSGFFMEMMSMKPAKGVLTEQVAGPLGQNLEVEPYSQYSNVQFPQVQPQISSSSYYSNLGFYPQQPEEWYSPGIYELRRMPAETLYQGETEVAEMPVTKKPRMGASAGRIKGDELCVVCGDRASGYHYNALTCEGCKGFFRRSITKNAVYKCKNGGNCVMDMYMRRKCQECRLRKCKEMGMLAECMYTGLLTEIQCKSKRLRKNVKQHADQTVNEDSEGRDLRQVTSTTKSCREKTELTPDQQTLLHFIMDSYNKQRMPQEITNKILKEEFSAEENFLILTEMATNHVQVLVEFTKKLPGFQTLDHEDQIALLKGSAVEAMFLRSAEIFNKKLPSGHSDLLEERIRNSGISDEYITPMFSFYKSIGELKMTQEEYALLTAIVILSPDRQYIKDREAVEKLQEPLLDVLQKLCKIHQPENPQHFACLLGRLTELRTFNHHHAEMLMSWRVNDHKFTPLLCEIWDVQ

[1] = molecular target: T2, Peroxisome proliferator-activated receptor alpha (Homo sapiens, UniProt Q07869); experiment: Transactivation of Gal4-tagged PPARalpha ligand binding domain (unknown origin) expressed in COS7 cells measured after overnight incubation by luciferase reporter gene assay; type: cell-based, COS-7
T2 sequence (Q07869 whole entry): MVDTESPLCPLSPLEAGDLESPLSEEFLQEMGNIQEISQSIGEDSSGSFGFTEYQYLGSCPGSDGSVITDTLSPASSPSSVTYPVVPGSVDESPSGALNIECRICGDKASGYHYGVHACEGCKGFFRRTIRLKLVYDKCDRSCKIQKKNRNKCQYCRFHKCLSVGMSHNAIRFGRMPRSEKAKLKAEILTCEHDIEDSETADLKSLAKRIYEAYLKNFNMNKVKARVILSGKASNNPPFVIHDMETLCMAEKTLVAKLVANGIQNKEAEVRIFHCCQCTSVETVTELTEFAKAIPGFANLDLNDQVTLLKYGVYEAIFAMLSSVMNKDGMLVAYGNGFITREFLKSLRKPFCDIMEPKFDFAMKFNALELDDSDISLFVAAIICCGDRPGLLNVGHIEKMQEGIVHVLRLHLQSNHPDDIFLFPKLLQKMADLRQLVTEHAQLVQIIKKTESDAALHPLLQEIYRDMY

[2] = molecular target: T3, Peroxisome proliferator-activated receptor gamma (Homo sapiens) (UniProt P37231); experiment: Transactivation of Gal4-tagged PPARgamma ligand binding domain (unknown origin) expressed in COS7 cells measured after overnight incubation by luciferase reporter gene assay relative to piaglitazone; type: cell-based; conditions: Chlorocebus aethiops; COS-7
T3 sequence (whole entry): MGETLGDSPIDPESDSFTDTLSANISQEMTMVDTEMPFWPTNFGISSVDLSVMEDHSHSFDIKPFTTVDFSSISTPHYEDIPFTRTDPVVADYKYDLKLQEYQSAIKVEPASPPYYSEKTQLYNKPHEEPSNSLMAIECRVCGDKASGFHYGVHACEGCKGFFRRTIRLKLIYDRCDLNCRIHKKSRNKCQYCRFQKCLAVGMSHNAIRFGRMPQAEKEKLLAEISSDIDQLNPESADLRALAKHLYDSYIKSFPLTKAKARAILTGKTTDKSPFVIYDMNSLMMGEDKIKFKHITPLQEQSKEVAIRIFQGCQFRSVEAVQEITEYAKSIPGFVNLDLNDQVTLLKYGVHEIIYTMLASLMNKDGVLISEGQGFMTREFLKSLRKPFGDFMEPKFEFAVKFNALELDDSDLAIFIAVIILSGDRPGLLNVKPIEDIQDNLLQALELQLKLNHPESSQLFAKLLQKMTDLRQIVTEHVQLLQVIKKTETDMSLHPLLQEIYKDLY

[3] = molecular target: T4, Peroxisome proliferator-activated receptor delta (Homo sapiens) (UniProt Q03181); experiment: Transactivation of Gal4-tagged PPARdelta ligand binding domain (unknown origin) expressed in COS7 cells at 30 uM measured after overnight incubation by luciferase reporter gene assay; type: cell-based; conditions: COS-7
T4 sequence (whole entry): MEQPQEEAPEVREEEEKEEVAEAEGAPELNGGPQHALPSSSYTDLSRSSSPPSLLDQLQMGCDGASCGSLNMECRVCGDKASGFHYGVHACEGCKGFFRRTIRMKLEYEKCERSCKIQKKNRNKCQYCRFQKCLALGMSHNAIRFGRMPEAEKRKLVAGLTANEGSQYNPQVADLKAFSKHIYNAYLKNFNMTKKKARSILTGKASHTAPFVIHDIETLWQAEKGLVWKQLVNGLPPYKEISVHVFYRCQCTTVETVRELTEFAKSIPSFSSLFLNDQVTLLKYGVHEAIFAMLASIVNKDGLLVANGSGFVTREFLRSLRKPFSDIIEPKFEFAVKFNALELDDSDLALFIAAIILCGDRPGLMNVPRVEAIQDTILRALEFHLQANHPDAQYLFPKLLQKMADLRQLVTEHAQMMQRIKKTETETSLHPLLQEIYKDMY

[4] = molecular target: T5, Bile acid receptor (Homo sapiens) (UniProt Q96RI1); experiment: Transactivation of human FXR expressed in human HeLa cells incubated for 24 hrs by luciferase reporter gene assay relative to GW4064; type: cell-based
T5 sequence (whole entry): T1 sequence (Q96RI1 whole entry)

[5] = molecular target: T6, Peroxisome proliferator-activated receptor gamma (Homo sapiens, UniProt P37231); experiment: Transactivation of Gal4-tagged PPARgamma ligand binding domain (unknown origin) expressed in COS7 cells measured after overnight incubation by luciferase reporter gene assay; type: cell-based, COS-7
T6 sequence (P37231 whole entry): T3 sequence (whole entry)

[6] = Cytotoxic activity against human HepG2 cells assessed as LDH release at 5 uM after 48 hrs by LDH release assay (reference value: 100%)
[7] = Antiproliferative activity against human HepG2 cells assessed as cell viability at 50 uM after 48 hrs by WST1 assay (reference value: 100%); type: cell-based; conditions: read-out: Activity
[8] = Cytotoxic activity against human HepG2 cells assessed as LDH release at 30 uM after 48 hrs by LDH release assay (reference value: 100%)
[9] = Antiproliferative activity against human HepG2 cells assessed as cell viability at 5 uM after 48 hrs by WST1 assay (reference value: 100%); type: cell-based; conditions: read-out: Activity
[10] = Cytotoxic activity against human HepG2 cells assessed as LDH release at 10 uM after 48 hrs by LDH release assay (reference value: 100%)
[11] = Aqueous solubility of the compound; type: physicochemical; conditions: aqueous medium (not specified further)
[12] = Antiproliferative activity against human HepG2 cells assessed as cell viability at 10 uM after 48 hrs by WST1 assay (reference value: 100%); type: cell-based; conditions: read-out: Activity
[13] = molecular target: T7, Peroxisome proliferator-activated receptor delta (Homo sapiens, UniProt Q03181); experiment: Transactivation of Gal4-tagged PPARdelta ligand binding domain (unknown origin) expressed in COS7 cells measured after overnight incubation by luciferase reporter gene assay; type: cell-based, COS-7
T7 sequence (Q03181 whole entry): T4 sequence (whole entry)

[14] = molecular target: T4, Peroxisome proliferator-activated receptor delta (Homo sapiens); experiment: Transactivation of Gal4-tagged PPARdelta ligand binding domain (unknown origin) expressed in COS7 cells measured after overnight incubation by luciferase reporter gene assay relative to L165,041; type: cell-based; conditions: Chlorocebus aethiops; COS-7
[15] = molecular target: T8, Peroxisome proliferator-activated receptor alpha (Homo sapiens) (UniProt Q07869); experiment: Transactivation of Gal4-tagged PPARalpha ligand binding domain (unknown origin) expressed in COS7 cells at 10 uM measured after overnight incubation by luciferase reporter gene assay; type: cell-based; conditions: COS-7
T8 sequence (whole entry): T2 sequence (Q07869 whole entry)

[16] = molecular target: T5, Bile acid receptor (Homo sapiens); experiment: Transactivation of human FXR expressed in human HeLa cells at 30 uM incubated for 24 hrs by luciferase reporter gene assay; type: cell-based
[17] = molecular target: T3, Peroxisome proliferator-activated receptor gamma (Homo sapiens); experiment: Transactivation of Gal4-tagged PPARgamma ligand binding domain (unknown origin) expressed in COS7 cells at 10 uM measured after overnight incubation by luciferase reporter gene assay; type: cell-based; conditions: COS-7
[18] = molecular target: T8, Peroxisome proliferator-activated receptor alpha (Homo sapiens); experiment: Transactivation of Gal4-tagged PPARalpha ligand binding domain (unknown origin) expressed in COS7 cells at 30 uM measured after overnight incubation by luciferase reporter gene assay; type: cell-based; conditions: COS-7
[19] = molecular target: T3, Peroxisome proliferator-activated receptor gamma (Homo sapiens); experiment: Transactivation of Gal4-tagged PPARgamma ligand binding domain (unknown origin) expressed in COS7 cells at 30 uM measured after overnight incubation by luciferase reporter gene assay; type: cell-based; conditions: COS-7

Structure (SMILES)	EC50 (Bile acid receptor) [µM]	EC50 [1] [µM]	max activation [2] [%]	Activity [3]	max activation [4] [%]	EC50 [5] [µM]	EC50 [13] [µM]	max activation [14] [%]	max activation [15] [%]	also measured
CC(C)(C)c1ccc(C(=O)Nc2ccccc2C(=O)Nc2cccc(CCC(=O)O)c2)cc1	0.06	5.4	175	inactive	22	5	–	–	–	–
Cc1ccc(NC(=O)c2ccccc2NC(=O)c2ccc(C(C)(C)C)cc2)cc1C(=O)O	–	0.21	98	inactive	22	5	–	–	–	LDH release (% cytotoxicity) at 48 h, 5 µM [6]: -0.1%; viability at 48 h, 50 µM [7]: 82.5%; LDH release (% cytotoxicity) at 48 h, 30 µM [8]: 28.4%; viability at 48 h, 5 µM [9]: 106%; LDH release (% cytotoxicity) at 48 h, 10 µM [10]: 2.2%; solubility [11]: 4.9 µM (≈ 2.11 µg/mL); viability at 48 h, 10 µM [12]: 99.6%
O=C(O)c1cccc(NC(=O)c2ccc(Cl)cc2NC(=O)c2ccc(C(F)(F)F)cc2)c1	2.1	18.6	420	–	17.8	8.7	3.4	16.5	–	–
O=C(O)CCc1cccc(NC(=O)c2ccccc2NC(=O)c2ccc(C(F)(F)F)cc2)c1	2.3	5.9	70	–	13	6.9	6.8	120	–	–
O=C(O)CCCNC(=O)c1ccccc1NC(=O)c1cccc2ccccc12	–	–	397	inactive	–	41	–	–	12	Activity [16]: inactive
CC(C)(C)c1ccc(C(=O)Nc2ccccc2C(=O)Nc2cc(C(=O)O)ccc2Cl)cc1	–	–	154	inactive	16	1.9	–	–	16	–
CCc1ccc(C(=O)Nc2ccccc2C(=O)NCCCC(=O)O)cc1	–	15.7	–	inactive	–	–	–	–	–	max activation [17]: 39%
CC(C)(C)c1ccc(C(=O)Nc2ccccc2C(=O)Nc2cc(C(=O)O)ccc2F)cc1	–	–	735	inactive	12	5.8	–	–	17	–
CSc1ccc(C(=O)Nc2ccccc2C(=O)Nc2cccc(CC(=O)O)c2)cc1	8.5	14.4	200	–	16.9	17.4	7.4	133	–	–
O=C(O)c1cccc(NC(=O)c2cc(Cl)ccc2NC(=O)c2ccc(C(F)(F)F)cc2)c1	3.4	–	415	–	16.9	4.7	6.3	24	25	–
O=C(O)Cc1cccc(NC(=O)c2ccccc2NC(=O)c2ccc(C(F)(F)F)cc2)c1	2.6	5.4	161	–	14.8	9.4	2.2	58	–	–
CC(C)(C)c1ccc(C(=O)Nc2ccccc2C(=O)Nc2cccc(C(N)=O)c2)cc1	0.07	–	–	inactive	15	–	–	–	–	Activity [18]: inactive; Activity [19]: inactive
O=C(O)c1cccc(NC(=O)c2ccccc2NC(=O)c2cc(C(F)(F)F)cc(C(F)(F)F)c2)c1	–	–	114	inactive	–	11	–	–	15	Activity [16]: inactive
O=C(O)Cc1cccc(NC(=O)c2ccccc2NC(=O)c2ccc(SC(F)(F)F)cc2)c1	7	1.3	158	–	23	4.4	2.3	64	–	–
COc1ccc(C(=O)Nc2ccccc2C(=O)Nc2cccc(CC(=O)O)c2)cc1	–	–	–	–	–	–	5.9	54	17.3	max activation [17]: 13.2%; Activity [16]: inactive
Cc1ccc(C(=O)O)cc1NC(=O)c1ccccc1NC(=O)c1ccc(C(C)(C)C)cc1	–	–	163	inactive	–	6.3	–	–	–	LDH release (% cytotoxicity) at 48 h, 5 µM [6]: -1.3%; Activity [18]: inactive; viability at 48 h, 50 µM [7]: 72%; LDH release (% cytotoxicity) at 48 h, 30 µM [8]: 37.3%; Activity [16]: inactive; viability at 48 h, 5 µM [9]: 95.7%; LDH release (% cytotoxicity) at 48 h, 10 µM [10]: 0.7%; solubility [11]: 2.6 µM (≈ 1.12 µg/mL); viability at 48 h, 10 µM [12]: 92.2%
O=C(O)c1ccc(CNC(=O)c2ccccc2NC(=O)c2ccc3ccccc3c2)cc1	–	–	–	inactive	–	–	–	–	17	max activation [17]: 56%
O=C(O)c1cccc(NC(=O)c2c(Cl)cccc2NC(=O)c2ccc(C(F)(F)F)cc2)c1	–	–	–	inactive	–	–	–	–	–	Activity [18]: inactive; Activity [19]: inactive; Activity [16]: inactive
O=C(O)CCCCCNC(=O)c1ccccc1NC(=O)c1ccc2ccccc2c1	–	–	–	inactive	–	–	–	–	38	max activation [17]: 40%
O=C(O)Cc1ccc(NC(=O)c2ccccc2NC(=O)c2ccc3ccccc3c2)cc1	–	–	–	inactive	–	–	–	–	–	max activation [17]: 25%; Activity [18]: inactive

Reference: ChEMBL document CHEMBL3393039, “Anthranilic acid derivatives as nuclear receptor modulators--development of novel PPAR selective and dual PPAR/FXR ligands” (Bioorg Med Chem, 2015)
